The text below walks through data of patent US8791267B2, “Biaryl PDE4 inhibitors for treating inflammatory, cardiovascular and CNS disorders” (Decode Genetics EHF, priority 2007, dated 2014).

The structures appear in SMILES notation.

One experiment has as its target PDE4B (Homo sapiens, UniProt Q07343). As to the kind of experiment: In-vitro assay for PDE4 enzymes, real-time enzyme-coupled spectrophotometric assay, PDE4B Activity (Table 10). The following applies: human PDE4B (hPDE4B), enzyme-coupled spectrophotometric assay; read-out: PDE4B Activity, hPDE4B. The experiment is classed as biochemical.
Another experiment concerns the target PDE4 (Homo sapiens, UniProt Q08499). As to the kind of experiment: In-vitro assay for PDE4 enzymes, real-time enzyme-coupled spectrophotometric assay (Table 9). The experiment is classed as biochemical. The note with it: human PDE4D; activity class, Table 9; read-out: hPDE4D.

PDE4B, sequence (Q07343 whole entry): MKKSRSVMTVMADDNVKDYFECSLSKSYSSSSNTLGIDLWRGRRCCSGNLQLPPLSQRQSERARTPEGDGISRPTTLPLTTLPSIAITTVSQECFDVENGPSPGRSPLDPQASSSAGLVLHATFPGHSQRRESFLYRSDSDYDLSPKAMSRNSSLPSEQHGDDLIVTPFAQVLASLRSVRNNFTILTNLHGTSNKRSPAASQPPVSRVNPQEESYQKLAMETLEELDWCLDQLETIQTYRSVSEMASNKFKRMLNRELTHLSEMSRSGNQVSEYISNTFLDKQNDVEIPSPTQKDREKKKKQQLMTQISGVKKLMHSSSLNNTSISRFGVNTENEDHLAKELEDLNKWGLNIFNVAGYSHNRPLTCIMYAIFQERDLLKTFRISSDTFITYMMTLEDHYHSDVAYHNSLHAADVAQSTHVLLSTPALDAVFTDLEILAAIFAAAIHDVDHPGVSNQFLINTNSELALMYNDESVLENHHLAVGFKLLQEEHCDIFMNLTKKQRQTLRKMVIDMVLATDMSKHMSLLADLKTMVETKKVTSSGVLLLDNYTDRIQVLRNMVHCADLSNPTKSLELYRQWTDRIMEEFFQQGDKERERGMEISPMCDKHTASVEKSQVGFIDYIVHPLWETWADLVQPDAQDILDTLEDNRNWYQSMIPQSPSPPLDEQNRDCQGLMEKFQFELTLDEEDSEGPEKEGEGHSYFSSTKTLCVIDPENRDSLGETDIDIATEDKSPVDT
PDE4, sequence (Q08499 whole entry): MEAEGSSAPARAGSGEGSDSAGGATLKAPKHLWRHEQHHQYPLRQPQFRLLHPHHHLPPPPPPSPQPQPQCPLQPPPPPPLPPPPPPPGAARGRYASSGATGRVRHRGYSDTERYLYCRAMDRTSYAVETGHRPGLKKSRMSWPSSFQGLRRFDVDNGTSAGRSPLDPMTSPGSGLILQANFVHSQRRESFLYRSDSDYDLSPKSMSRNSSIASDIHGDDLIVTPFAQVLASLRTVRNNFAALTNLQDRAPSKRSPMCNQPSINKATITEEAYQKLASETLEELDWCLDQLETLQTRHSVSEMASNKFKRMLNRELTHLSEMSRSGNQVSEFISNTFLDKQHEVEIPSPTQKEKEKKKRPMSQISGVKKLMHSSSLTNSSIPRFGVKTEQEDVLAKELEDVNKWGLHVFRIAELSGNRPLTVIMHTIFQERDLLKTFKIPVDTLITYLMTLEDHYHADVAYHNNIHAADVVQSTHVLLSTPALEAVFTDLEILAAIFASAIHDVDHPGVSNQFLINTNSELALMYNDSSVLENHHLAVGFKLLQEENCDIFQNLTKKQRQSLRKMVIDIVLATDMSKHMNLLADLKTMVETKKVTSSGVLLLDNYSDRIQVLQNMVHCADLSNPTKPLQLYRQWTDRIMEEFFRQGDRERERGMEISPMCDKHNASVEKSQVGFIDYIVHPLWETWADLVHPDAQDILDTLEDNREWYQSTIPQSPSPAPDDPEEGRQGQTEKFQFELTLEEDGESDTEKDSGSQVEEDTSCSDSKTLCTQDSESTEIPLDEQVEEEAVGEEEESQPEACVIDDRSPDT

Turning to `COc1ccc(Cn2cccn2)cc1-c1ccc2c(c1)OCO2` [P-074, 1-(3-Benzo[1,3]dioxol-5-yl-4-methoxy-benzyl)-1H-pyrazole], the values for the IC50 at PDE4B and at PDE4 were 5 to 20 µM and < 5 µM, respectively.

For `COc1ccc(Cc2ccnn2C)cc1-c1ccc2c(c1)OCO2` [P-075, 5-(3-Benzo[1,3]dioxol-5-yl-4-methoxy-benzyl)-1-methyl-1H-pyrazole], the IC50 at PDE4B and at PDE4 was < 5 µM throughout.

With `COc1ccc(CN2CCOC2=O)cc1-c1cccc([N+](=O)[O-])c1` [P-076, 3-(6-Methoxy-3′-nitro-biphenyl-3-ylmethyl)-oxazolidin-2-one], the IC50 at PDE4B and at PDE4 was < 5 µM throughout.

For the compound `COc1ccc(Cn2cccn2)cc1-c1cccc([N+](=O)[O-])c1` [P-077, 1-(6-Methoxy-3′-nitro-biphenyl-3-ylmethyl)-1H-pyrazole], the IC50 on PDE4B and at PDE4 was < 5 µM in each case.

For the compound `O=[N+]([O-])c1cccc(-c2cc(C(O)c3ccc(F)cc3)ccc2OC(F)(F)F)c1` (stereo not shown) [P-079, (4-Fluoro-phenyl)-(3′-nitro-6-trifluoromethoxy-biphenyl-3-yl)-methanol], the IC50 on PDE4B and on PDE4 was < 5 µM each time.

As for `COc1ccc(Cn2cncn2)cc1-c1cccc(C#N)c1` [P-081, 2′-Methoxy-5′-[1,2,4]triazol-1-ylmethyl-biphenyl-3-carbonitrile], the IC50 was 5 to 20 µM at PDE4B and < 5 µM at PDE4.

Regarding `COc1ccc(Cn2cncn2)cc1-c1cccc(C(C)=O)c1` [P-082, 1-(2′-Methoxy-5′-[1,2,4]triazol-1-ylmethyl-biphenyl-3-yl)-ethanone], the IC50 on PDE4B was 5 to 20 µM; at PDE4, < 5 µM.

As to `COc1ccc(CN2CCOC2=O)cc1-c1cccc(C(F)(F)F)c1` [P-083], the IC50 at PDE4B and at PDE4 was 5 to 20 µM each time.

With `COc1ccc(Cn2cncn2)cc1-c1cccc(OC(F)(F)F)c1` [P-084, 1-(6-Methoxy-3′-trifluoromethoxy-biphenyl-3-ylmethyl)-1H-[1,2,4]triazole], the IC50 at PDE4B was 5 to 20 µM; on PDE4 it was < 5 µM.

Turning to `COc1ccc(Cn2cncn2)cc1-c1cccc(SC)c1` [P-085, 1-(6-Methoxy-3′-methylsulfanyl-biphenyl-3-ylmethyl)-1H-[1,2,4]triazole], the IC50 at PDE4B and at PDE4 was < 5 µM throughout.

Take `COc1cccc(-c2cc(Cn3cncn3)ccc2OC)c1` [P-086, 1-(6,3′-Dimethoxy-biphenyl-3-ylmethyl)-1H-[1,2,4]triazole]: the IC50 at PDE4B is 5 to 20 µM; at PDE4, < 5 µM.

Turning to `CCOC(=O)Cn1nc(C)c(Cc2ccc(OC)c(-c3cccc([N+](=O)[O-])c3)c2)c1C` [P-087, [4-(6-Methoxy-3′-nitro-biphenyl-3-ylmethyl)-3,5-dimethyl-pyrazol-1-yl]-acetic acid ethyl ester], the IC50 at PDE4B and at PDE4 was < 5 µM throughout.

`COc1ccc(Cc2c(C)nn(CCO)c2C)cc1-c1cccc([N+](=O)[O-])c1` [P-088, 2-[4-(6-Methoxy-3′-nitro-biphenyl-3-ylmethyl)-3,5-dimethyl-pyrazol-1-yl]-ethanol]: the IC50 on PDE4B and on PDE4 was < 5 µM each time.

`COc1ccc(Cc2c(C)n[nH]c2C)cc1-c1cccc([N+](=O)[O-])c1` [P-089, 4-(6-Methoxy-3′-nitro-biphenyl-3-ylmethyl)-3,5-dimethyl-1H-pyrazole]: the IC50 at PDE4B and on PDE4 was < 5 µM each time.

Take `COc1ccc(Cc2c(C)nn(CC(F)(F)F)c2C)cc1-c1cccc([N+](=O)[O-])c1` [P-090, 4-(6-Methoxy-3′-nitro-biphenyl-3-ylmethyl)-3,5-dimethyl-1-(2,2,2-trifluoro-ethyl)-1H-pyrazole]: the IC50 on PDE4B and at PDE4 was < 5 µM each time.

As to `COc1ccc(COC2=CC(=O)CC2)cc1-c1cccc(C(F)(F)F)c1` [P-091, 3-(6-Methoxy-3′-trifluoromethyl-biphenyl-3-ylmethoxy)-cyclopent-2-enone], the IC50 at PDE4B is 21 to 40 µM; on PDE4, < 5 µM.

Take `COc1ccc(COC2=CC(=O)CC2)cc1-c1cccc([N+](=O)[O-])c1` [P-092, 3-(6-Methoxy-3′-nitro-biphenyl-3-ylmethoxy)-cyclopent-2-enone]: the IC50 at PDE4B and at PDE4 was < 5 µM throughout.

As for `COc1cc(F)c(C(O)c2ccc(F)cc2)cc1-c1cccc([N+](=O)[O-])c1` (stereo not shown) [P-093, (4-Fluoro-6-methoxy-3′-nitro-biphenyl-3-yl)-(4-fluoro-phenyl)-methanol], the IC50 is 5 to 20 µM on PDE4B and < 5 µM at PDE4.

For the compound `COc1cc(F)c(Cc2ccc(F)cc2)cc1-c1cccc([N+](=O)[O-])c1` [P-094, 4-Fluoro-5-(4-fluoro-benzyl)-2-methoxy-3′-nitro-biphenyl], the IC50 on PDE4B and at PDE4 was < 5 µM throughout.

With `COc1ccc(Cc2ccc(F)cc2)c(O)c1-c1cccc([N+](=O)[O-])c1` [P-099, 3-(4-Fluoro-benzyl)-6-methoxy-3′-nitro-biphenyl-2-ol], the IC50 on PDE4B and on PDE4 was < 5 µM throughout.

Regarding `COc1ccc(Cc2c(C)nn(CC(N)=O)c2C)cc1-c1cccc([N+](=O)[O-])c1` [P-101, 2-[4-(6-Methoxy-3′-nitro-biphenyl-3-ylmethyl)-3,5-dimethyl-pyrazol-1-yl]-acetamide], the IC50 on PDE4B and on PDE4 was < 5 µM each time.

`COc1ccc(Cc2cccc(O)c2)cc1-c1cccc([N+](=O)[O-])c1` [P-102, 3-(6-Methoxy-3′-nitro-biphenyl-3-ylmethyl)-phenol]: the IC50 on PDE4B and at PDE4 was < 5 µM throughout.

Take `COc1ccc(Cc2cccc(CO)c2)cc1-c1cccc([N+](=O)[O-])c1` [P-103, [3-(6-Methoxy-3′-nitro-biphenyl-3-ylmethyl)-phenyl]-methanol]: the IC50 at PDE4B and on PDE4 was < 5 µM each time.

For `COc1ccc(Cn2ccccc2=O)cc1-c1cccc([N+](=O)[O-])c1` [P-104, 1-(6-Methoxy-3′-nitro-biphenyl-3-ylmethyl)-1H-pyridin-2-one], the IC50 at PDE4B and on PDE4 was < 5 µM in each case.

As for `COc1ccc(Cc2ccccc2O)cc1-c1cccc([N+](=O)[O-])c1` [P-105, 2-(6-Methoxy-3′-nitro-biphenyl-3-ylmethyl)-phenol], the IC50 on PDE4B and at PDE4 was < 5 µM throughout.

On to `COc1ccc(Cc2cccnc2)c(O)c1-c1cccc([N+](=O)[O-])c1` [P-106], for which the IC50 on PDE4B and at PDE4 was < 5 µM in each case.

Take `COc1ccc(Cc2ccc(NC(C)=O)cc2)c(F)c1-c1cccc([N+](=O)[O-])c1` [P-107]: the IC50 on PDE4B and at PDE4 was < 5 µM throughout.

Turning to `COc1ccc(Cc2cccnc2Cl)c(O)c1-c1cccc([N+](=O)[O-])c1` [P-109], the IC50 at PDE4B and at PDE4 was < 5 µM each time.

Take `COc1ccc(Cc2ccc(N)nc2)cc1-c1cccc([N+](=O)[O-])c1` [P-111]: the IC50 on PDE4B and at PDE4 was < 5 µM throughout.

Regarding `COc1ccc(Cc2ccc(NC(=O)OC(C)(C)C)cc2)cc1-c1cccc([N+](=O)[O-])c1` [P-112], the IC50 at PDE4B and at PDE4 was < 5 µM throughout.

For `COc1ccc(Cc2ccc(N)cc2)cc1-c1cccc([N+](=O)[O-])c1` [P-113], the IC50 on PDE4B and on PDE4 was < 5 µM in each case.

On to `COc1ccc(Cc2ccc(NC(C)=O)cc2)cc1-c1cccc([N+](=O)[O-])c1` [P-114], for which the IC50 at PDE4B and on PDE4 was < 5 µM throughout.

On to `COc1ccc(Cc2ccnn2C)cc1-c1ccc2c(c1)OC(F)(F)O2` [P-115, 5-[3-(2,2-Difluoro-benzo[1,3]dioxol-5-yl)-4-methoxy-benzyl]-1-methyl-1H-pyrazole], for which the IC50 at PDE4B and on PDE4 was < 5 µM throughout.

Turning to `O=[N+]([O-])c1cccc(-c2c(OC(F)F)ccc(Cc3ccc(F)cc3)c2F)c1` [P-116], the IC50 on PDE4B and at PDE4 was < 5 µM in each case.

On to `COc1ccc(C(O)c2ccc(F)cc2)cc1-c1cccc(-c2nnco2)c1` (stereo not shown) [P-117, (4-Fluoro-phenyl)-(6-methoxy-3′-[1,3,4]oxadiazol-2-yl-biphenyl-3-yl)-methanol], for which the IC50 at PDE4B is 21 to 40 µM; at PDE4 it was < 5 µM.

With `COc1ccc(Cc2ccc(F)cc2)cc1-c1cccc(-c2nnco2)c1` [P-118, 2-[5′-(4-Fluoro-benzyl)-2′-methoxy-biphenyl-3-yl]-[1,3,4]oxadiazole], the IC50 on PDE4B and at PDE4 was < 5 µM each time.

As to `COc1ccc(Cc2ccc(F)cc2O)cc1-c1cccc([N+](=O)[O-])c1` [P-119, 5-Fluoro-2-(6-methoxy-3′-nitro-biphenyl-3-ylmethyl)-phenol], the IC50 on PDE4B and on PDE4 was < 5 µM throughout.

As to `COc1ccc(Cc2ccc(NC(=O)CCC(=O)O)cc2)cc1-c1cccc([N+](=O)[O-])c1` [P-122], the IC50 at PDE4B is 5 to 20 µM; on PDE4, < 5 µM.

Turning to `COc1ccc(Cc2ccc(NS(C)(=O)=O)cc2)cc1-c1cccc([N+](=O)[O-])c1` [P-123], the IC50 at PDE4B and at PDE4 was < 5 µM in each case.

Regarding `COc1ccc(Cc2ccc(OC)c(-c3cccc([N+](=O)[O-])c3)c2O)cn1` [P-125], the IC50 on PDE4B and on PDE4 was < 5 µM throughout.

Turning to `COc1ccc(Cc2ccc(Cl)nc2)c(O)c1-c1cccc([N+](=O)[O-])c1` [P-126], the IC50 at PDE4B and at PDE4 was < 5 µM throughout.

As to `COc1ccc(CC2CCCS2)c(F)c1-c1cccc([N+](=O)[O-])c1` (stereo not shown) [P-127], the IC50 on PDE4B and at PDE4 was < 5 µM each time.

As to `COc1ccc(CC2CCCS2)c(F)c1-c1cccc([N+](=O)[O-])c1` (stereo not shown) [P-128, 2-(2-fluoro-6-methoxy-3′-nitro-biphenyl-3-ylmethyl)-tetrahydro-thiophene], the IC50 on PDE4B and on PDE4 was < 5 µM in each case.

`COc1ccc(Cc2ccno2)c(O)c1-c1cccc([N+](=O)[O-])c1` [P-130, 3-isoxazol-5-ylmethyl-6-methoxy-3′-nitro-biphenyl-2-ol]: the IC50 at PDE4B and on PDE4 was < 5 µM in each case.
